Measurements published in publication doi:10.1101/2023.03.24.534094v2 (biorxiv, 2023).
Like-named read-outs stand apart in the source and are kept apart here. Values belong to the molecule of their own block, whether it stands above or below them.

Key:
Assay in all cases: biochemical
NDR2 = NDR2 (Homo sapiens, UniProt Q9Y2H1)
CK1e = CK1e (Homo sapiens, UniProt P49674)
HIPK2 = HIPK2 (Homo sapiens, UniProt Q9H2X6)
MSK1b = MSK1b (Homo sapiens, UniProt O75582)
MAP3K5 = biological target: T1, MAP3K5 (Homo sapiens, UniProt Q99683)
T1 sequence (Q99683 1-1374): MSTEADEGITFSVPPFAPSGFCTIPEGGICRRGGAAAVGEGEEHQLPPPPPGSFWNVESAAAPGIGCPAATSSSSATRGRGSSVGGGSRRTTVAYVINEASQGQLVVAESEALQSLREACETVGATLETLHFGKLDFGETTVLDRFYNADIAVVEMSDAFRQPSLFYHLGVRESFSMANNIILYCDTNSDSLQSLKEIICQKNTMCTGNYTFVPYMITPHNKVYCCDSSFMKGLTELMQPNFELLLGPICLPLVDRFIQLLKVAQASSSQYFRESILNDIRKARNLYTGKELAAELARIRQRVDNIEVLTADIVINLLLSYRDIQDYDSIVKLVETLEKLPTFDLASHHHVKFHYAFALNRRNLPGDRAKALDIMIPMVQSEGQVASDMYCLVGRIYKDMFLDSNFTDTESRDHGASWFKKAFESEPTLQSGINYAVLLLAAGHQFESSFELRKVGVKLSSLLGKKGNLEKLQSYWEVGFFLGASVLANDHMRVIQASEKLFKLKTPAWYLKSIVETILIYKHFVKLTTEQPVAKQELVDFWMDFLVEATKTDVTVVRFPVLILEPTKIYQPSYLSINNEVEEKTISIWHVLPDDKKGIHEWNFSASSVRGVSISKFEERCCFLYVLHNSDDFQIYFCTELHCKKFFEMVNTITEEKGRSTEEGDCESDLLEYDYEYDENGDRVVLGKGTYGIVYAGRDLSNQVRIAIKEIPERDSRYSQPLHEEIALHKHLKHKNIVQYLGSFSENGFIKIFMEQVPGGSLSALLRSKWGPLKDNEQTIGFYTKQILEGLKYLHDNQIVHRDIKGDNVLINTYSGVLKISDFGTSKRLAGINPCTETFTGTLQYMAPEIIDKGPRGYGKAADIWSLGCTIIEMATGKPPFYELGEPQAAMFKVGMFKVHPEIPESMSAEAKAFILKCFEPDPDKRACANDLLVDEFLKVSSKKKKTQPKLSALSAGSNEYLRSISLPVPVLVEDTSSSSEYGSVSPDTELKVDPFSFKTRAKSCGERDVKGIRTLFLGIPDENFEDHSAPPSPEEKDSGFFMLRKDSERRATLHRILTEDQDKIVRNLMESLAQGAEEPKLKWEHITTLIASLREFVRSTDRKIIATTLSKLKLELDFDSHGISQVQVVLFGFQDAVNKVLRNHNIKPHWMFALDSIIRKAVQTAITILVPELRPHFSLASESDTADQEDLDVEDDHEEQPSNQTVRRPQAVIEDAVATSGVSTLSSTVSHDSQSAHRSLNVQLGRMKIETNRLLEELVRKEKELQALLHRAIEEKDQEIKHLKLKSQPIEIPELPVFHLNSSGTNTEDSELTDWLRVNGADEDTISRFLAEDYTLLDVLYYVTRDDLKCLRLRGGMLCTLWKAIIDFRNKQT

MARK4 = biological target: T2, MARK4 (Homo sapiens, UniProt Q96L34)
T2 sequence (Q96L34 1-752): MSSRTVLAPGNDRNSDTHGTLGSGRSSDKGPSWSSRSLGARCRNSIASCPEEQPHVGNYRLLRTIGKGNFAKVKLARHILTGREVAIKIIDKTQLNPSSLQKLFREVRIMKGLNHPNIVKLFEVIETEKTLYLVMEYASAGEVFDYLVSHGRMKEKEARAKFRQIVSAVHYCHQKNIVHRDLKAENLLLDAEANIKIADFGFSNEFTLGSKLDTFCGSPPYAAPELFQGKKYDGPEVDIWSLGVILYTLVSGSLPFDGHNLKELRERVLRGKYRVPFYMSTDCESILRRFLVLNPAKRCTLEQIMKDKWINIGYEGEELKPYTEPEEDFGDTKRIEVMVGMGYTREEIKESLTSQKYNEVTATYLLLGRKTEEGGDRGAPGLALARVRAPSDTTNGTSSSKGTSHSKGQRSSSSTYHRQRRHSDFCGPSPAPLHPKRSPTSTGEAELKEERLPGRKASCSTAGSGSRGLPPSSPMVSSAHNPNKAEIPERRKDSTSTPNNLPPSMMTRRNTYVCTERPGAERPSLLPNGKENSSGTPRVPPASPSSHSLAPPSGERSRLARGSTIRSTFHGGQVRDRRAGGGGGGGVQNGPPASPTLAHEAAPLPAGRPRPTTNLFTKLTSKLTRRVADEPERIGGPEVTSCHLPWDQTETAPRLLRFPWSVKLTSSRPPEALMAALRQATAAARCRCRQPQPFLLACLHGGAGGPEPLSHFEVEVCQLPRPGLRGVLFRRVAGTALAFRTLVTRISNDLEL

CaMK1d = CaMK1d (Homo sapiens, UniProt Q8IU85)
CaMK1d, sequence (Q8IU85 whole entry): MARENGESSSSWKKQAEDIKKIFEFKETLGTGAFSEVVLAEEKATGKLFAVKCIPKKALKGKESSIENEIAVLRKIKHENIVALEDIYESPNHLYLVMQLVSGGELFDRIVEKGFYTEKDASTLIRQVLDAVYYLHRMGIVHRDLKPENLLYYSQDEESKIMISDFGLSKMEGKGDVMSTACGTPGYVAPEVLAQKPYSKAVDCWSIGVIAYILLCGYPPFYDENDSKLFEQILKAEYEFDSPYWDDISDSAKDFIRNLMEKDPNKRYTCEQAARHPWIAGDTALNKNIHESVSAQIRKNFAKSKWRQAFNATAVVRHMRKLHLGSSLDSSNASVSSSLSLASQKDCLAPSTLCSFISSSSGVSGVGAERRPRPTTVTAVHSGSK

FGFR1 = FGFR1 (Homo sapiens, UniProt P11362)
FGFR1, sequence (P11362 whole entry): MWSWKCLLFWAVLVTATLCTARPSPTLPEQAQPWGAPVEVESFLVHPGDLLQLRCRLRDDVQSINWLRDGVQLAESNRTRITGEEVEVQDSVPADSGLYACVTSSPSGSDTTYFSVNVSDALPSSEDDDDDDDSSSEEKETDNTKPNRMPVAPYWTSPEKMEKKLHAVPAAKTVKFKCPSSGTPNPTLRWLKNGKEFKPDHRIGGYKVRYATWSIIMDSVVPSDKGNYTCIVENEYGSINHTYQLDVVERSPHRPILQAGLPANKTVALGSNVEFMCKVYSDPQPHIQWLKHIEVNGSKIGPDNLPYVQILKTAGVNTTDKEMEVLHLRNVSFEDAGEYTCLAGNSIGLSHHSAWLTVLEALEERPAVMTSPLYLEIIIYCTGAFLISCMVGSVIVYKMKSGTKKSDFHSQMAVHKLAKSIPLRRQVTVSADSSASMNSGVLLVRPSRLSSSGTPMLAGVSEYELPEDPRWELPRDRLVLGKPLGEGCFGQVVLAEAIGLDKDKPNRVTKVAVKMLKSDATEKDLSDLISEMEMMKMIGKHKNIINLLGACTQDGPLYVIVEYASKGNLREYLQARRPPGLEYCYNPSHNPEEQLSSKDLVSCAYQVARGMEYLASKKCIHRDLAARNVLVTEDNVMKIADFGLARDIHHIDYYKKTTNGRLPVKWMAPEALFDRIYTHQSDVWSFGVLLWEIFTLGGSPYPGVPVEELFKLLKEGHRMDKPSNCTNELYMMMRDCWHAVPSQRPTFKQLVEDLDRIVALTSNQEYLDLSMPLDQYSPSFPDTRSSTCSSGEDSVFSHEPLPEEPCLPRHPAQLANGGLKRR

CDK2 = CDK2 (Homo sapiens, UniProt P24941)
BIKE = BIKE (Homo sapiens, UniProt Q9NSY1)
BIKE, sequence (Q9NSY1 whole entry): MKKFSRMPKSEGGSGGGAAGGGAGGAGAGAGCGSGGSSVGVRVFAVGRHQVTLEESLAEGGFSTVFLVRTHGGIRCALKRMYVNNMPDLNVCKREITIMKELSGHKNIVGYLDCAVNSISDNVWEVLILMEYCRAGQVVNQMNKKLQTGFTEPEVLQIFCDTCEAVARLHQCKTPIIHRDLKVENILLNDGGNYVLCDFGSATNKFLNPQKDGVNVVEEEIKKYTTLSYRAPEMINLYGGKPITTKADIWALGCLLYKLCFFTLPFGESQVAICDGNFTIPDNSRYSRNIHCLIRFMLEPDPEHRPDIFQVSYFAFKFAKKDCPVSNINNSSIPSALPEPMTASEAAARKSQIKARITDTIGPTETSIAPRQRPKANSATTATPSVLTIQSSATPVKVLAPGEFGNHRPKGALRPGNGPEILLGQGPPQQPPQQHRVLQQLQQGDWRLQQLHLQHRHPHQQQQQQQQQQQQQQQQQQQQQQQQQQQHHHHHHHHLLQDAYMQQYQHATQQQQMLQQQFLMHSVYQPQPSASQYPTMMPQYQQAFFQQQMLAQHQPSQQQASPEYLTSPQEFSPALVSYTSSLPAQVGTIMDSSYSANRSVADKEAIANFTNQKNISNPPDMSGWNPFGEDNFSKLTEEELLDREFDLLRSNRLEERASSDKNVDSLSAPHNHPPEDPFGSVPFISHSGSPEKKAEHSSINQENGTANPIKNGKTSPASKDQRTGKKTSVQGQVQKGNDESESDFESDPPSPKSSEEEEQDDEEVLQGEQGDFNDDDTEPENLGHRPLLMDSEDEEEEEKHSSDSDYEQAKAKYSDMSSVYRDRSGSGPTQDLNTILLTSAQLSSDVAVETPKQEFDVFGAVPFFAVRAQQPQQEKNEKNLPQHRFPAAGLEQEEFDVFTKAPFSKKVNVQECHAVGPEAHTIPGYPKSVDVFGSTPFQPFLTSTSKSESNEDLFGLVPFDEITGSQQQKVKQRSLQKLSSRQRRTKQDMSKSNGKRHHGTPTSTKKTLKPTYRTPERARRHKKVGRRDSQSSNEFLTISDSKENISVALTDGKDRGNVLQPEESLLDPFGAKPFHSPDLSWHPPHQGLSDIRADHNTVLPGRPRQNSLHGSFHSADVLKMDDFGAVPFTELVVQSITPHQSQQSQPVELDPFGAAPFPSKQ

JNK2 = JNK2 (Homo sapiens, UniProt P45984)
JNK2, sequence (P45984 whole entry): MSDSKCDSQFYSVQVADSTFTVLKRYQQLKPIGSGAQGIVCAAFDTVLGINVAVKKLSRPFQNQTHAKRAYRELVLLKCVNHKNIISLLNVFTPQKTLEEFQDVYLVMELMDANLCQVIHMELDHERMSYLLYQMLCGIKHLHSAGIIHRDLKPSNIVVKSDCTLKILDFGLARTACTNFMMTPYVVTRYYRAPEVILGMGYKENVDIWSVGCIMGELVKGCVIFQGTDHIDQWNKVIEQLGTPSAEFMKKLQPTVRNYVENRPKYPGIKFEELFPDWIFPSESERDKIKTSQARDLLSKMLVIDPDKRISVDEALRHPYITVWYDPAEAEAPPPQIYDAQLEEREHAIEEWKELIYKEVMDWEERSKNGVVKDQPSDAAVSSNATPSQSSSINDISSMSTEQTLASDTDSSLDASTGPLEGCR

CK1e, sequence (P49674 whole entry): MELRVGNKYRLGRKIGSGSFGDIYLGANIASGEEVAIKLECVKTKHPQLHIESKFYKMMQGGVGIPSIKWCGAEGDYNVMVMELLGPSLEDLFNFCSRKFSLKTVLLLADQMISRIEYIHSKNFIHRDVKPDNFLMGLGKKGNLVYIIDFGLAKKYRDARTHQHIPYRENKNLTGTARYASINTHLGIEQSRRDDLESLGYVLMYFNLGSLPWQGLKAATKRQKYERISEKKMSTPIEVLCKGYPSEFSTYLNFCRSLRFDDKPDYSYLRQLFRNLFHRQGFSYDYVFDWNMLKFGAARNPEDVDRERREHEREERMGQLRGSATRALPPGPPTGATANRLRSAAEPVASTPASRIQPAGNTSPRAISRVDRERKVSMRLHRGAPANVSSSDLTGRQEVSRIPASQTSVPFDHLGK
NDR2, sequence (Q9Y2H1 whole entry): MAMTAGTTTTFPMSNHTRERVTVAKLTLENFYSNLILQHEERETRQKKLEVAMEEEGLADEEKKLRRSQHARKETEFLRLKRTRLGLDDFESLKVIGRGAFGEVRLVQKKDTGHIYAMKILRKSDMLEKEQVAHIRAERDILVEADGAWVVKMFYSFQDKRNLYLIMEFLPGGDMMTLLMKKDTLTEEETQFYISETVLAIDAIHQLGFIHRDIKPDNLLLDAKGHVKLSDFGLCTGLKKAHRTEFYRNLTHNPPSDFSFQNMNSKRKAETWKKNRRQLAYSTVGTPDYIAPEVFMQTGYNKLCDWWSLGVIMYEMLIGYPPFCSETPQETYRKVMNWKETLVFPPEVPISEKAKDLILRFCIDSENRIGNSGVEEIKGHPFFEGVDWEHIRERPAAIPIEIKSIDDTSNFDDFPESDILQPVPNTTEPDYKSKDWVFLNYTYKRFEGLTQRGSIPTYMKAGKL
MSK1b, sequence (O75582 whole entry): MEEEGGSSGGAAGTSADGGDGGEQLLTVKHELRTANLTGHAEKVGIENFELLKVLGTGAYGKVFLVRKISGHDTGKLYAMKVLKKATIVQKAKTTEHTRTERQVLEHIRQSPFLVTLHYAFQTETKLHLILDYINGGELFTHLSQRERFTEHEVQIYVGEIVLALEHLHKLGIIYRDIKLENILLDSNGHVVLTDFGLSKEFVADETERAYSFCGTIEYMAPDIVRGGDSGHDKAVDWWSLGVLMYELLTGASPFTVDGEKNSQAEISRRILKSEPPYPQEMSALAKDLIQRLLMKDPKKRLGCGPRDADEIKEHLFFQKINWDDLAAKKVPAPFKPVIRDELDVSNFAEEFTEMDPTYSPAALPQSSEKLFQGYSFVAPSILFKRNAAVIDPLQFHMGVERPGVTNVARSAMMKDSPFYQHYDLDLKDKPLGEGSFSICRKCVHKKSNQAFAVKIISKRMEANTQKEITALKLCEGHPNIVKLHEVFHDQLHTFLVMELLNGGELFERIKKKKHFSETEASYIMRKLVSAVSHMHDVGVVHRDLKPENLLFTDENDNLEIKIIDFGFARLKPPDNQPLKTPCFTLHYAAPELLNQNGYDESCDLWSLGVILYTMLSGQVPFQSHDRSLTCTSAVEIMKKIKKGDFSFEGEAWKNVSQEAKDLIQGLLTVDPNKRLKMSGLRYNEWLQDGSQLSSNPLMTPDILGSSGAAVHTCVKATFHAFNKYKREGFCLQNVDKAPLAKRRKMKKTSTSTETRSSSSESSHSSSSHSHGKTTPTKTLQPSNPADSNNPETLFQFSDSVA

Compound: CNc1ncc2cc(-c3cc(Br)ccc3Cl)c(=O)n(C[C@H]3OC[C@H](N)CO3)c2n1 [compound 7, 8-(((2r,5r)-5-Amino-1,3-dioxan-2-yl)methyl)-6-(5-bromo-2-chlorophenyl)-2-(methylamino)pyrido[2,3-d]pyrimidin-7(8H)-one]
ΔTm at 10 µM (NDR2; read-out: dTm 7): -0.1 °C
ΔTm at 10 µM (HIPK2; read-out: dTm 7): 0.5 °C
ΔTm at 10 µM (MSK1b; read-out: dTm 7): 1.1 °C
ΔTm at 10 µM (MAP3K5; read-out: dTm 7): 0.8 °C
ΔTm at 10 µM (MARK4; read-out: dTm 7): 0.8 °C
ΔTm at 10 µM (CaMK1d; read-out: dTm 7): 0.4 °C
ΔTm at 10 µM (FGFR1; read-out: dTm 7): 2.9 °C
ΔTm at 10 µM (CDK2; read-out: dTm 7): 0.3 °C
ΔTm at 10 µM (BIKE; read-out: dTm 7): 0.7 °C
ΔTm at 10 µM (JNK2; read-out: dTm 7): 1.1 °C

Compound: CNc1ncc2cc(-c3cc(F)ccc3F)c(=O)n(CCCCN)c2n1 [compound 5, 8-(4-Aminobutyl)-6-(2,5-difluorophenyl)-2-(methylamino)pyrido[2,3-d]pyrimidin-7(8H)-one]
ΔTm at 10 µM (NDR2; read-out: dTm MR22 (5)): 1.6 °C
ΔTm at 10 µM (CK1e; read-out: dTm MR22 (5)): 2.8 °C
ΔTm at 10 µM (HIPK2; read-out: dTm MR22 (5)): 0.1 °C
ΔTm at 10 µM (MSK1b; read-out: dTm MR22 (5)): 1.5 °C
ΔTm at 10 µM (MAP3K5; read-out: dTm MR22 (5)): 1 °C
ΔTm at 10 µM (MARK4; read-out: dTm MR22 (5)): 0 °C
ΔTm at 10 µM (CaMK1d; read-out: dTm MR22 (5)): -1.2 °C
ΔTm at 10 µM (FGFR1; read-out: dTm MR22 (5)): 3.4 °C
ΔTm at 10 µM (CDK2; read-out: dTm MR22 (5)): 0.7 °C
ΔTm at 10 µM (BIKE; read-out: dTm MR22 (5)): 2.1 °C
ΔTm at 10 µM (JNK2; read-out: dTm MR22 (5)): 0.2 °C

Compound: CNc1ncc2cc(-c3ccc(-c4cccc(C)n4)cc3Cl)c(=O)n(CC3OCC(N)CO3)c2n1 (stereo not shown) [compound 2, G-5555]
dTm G-5555 (2) (NDR2; 10 µM, binder): 3.5 °C
dTm G-5555 (2) (MSK1b; 10 µM, binder): 2.0 °C
dTm G-5555 (2) (MAP3K5; 10 µM, binder): 8.9 °C
dTm G-5555 (2) (MARK4; 10 µM, binder): 7.7 °C
dTm G-5555 (2) (CaMK1d; 10 µM, binder): 4.5 °C
dTm G-5555 (2) (FGFR1; 10 µM, binder): -0.1 °C
dTm G-5555 (2) (CDK2; 10 µM, binder): 0.5 °C
dTm G-5555 (2) (BIKE; 10 µM, binder): 2.5 °C
dTm G-5555 (2) (JNK2; 10 µM, binder): 0.6 °C

Results, then the molecule that gave them:

ΔTm at 10 µM (NDR2; read-out: dTm 6): 0.7 °C
ΔTm at 10 µM (CK1e; read-out: dTm 6): 2.6 °C
ΔTm at 10 µM (HIPK2; read-out: dTm 6): 0.2 °C
ΔTm at 10 µM (MSK1b; read-out: dTm 6): 0.3 °C
ΔTm at 10 µM (MAP3K5; read-out: dTm 6): 0.9 °C
ΔTm at 10 µM (MARK4; read-out: dTm 6): 1.7 °C
ΔTm at 10 µM (CaMK1d; read-out: dTm 6): 2.1 °C
ΔTm at 10 µM (FGFR1; read-out: dTm 6): 3 °C
ΔTm at 10 µM (CDK2; read-out: dTm 6): 0.5 °C
ΔTm at 10 µM (BIKE; read-out: dTm 6): 0.6 °C
ΔTm at 10 µM (JNK2; read-out: dTm 6): -0.4 °C
Compound: CNc1ncc2cc(-c3cc(Br)ccc3Cl)c(=O)n(CCCCN)c2n1 [compound 6, 8-(4-Aminobutyl)-6-(5-bromo-2-chlorophenyl)-2-(methylamino)pyrido[2,3-d]pyrimidin-7(8H)-one]

ΔTm at 10 µM (NDR2; read-out: dTm MR21 (4)): 0.5 °C
ΔTm at 10 µM (CK1e; read-out: dTm MR21 (4)): 4.9 °C
ΔTm at 10 µM (HIPK2; read-out: dTm MR21 (4)): 0.1 °C
ΔTm at 10 µM (MSK1b; read-out: dTm MR21 (4)): 2.1 °C
ΔTm at 10 µM (MAP3K5; read-out: dTm MR21 (4)): 2.9 °C
ΔTm at 10 µM (MARK4; read-out: dTm MR21 (4)): 3 °C
ΔTm at 10 µM (CaMK1d; read-out: dTm MR21 (4)): 2.7 °C
ΔTm at 10 µM (FGFR1; read-out: dTm MR21 (4)): 3.3 °C
ΔTm at 10 µM (CDK2; read-out: dTm MR21 (4)): 0.4 °C
ΔTm at 10 µM (BIKE; read-out: dTm MR21 (4)): 3.1 °C
ΔTm at 10 µM (JNK2; read-out: dTm MR21 (4)): -0.1 °C
Compound: CNc1ncc2cc(-c3ccccc3Cl)c(=O)n(CCCCN)c2n1 [compound 4, 8-(4-Aminobutyl)-6-(2-chlorophenyl)-2-(methylamino)pyrido[2,3-d]pyrimidin-7(8H)-one]
